The source of these data is patent publication US20100151015A1 (priority 2008, published 2010).

Series [1] can be described thus: Solubility of Melperone HCl in various media. The series is classed as physicochemical.
Series [2] deals with psychosis in patients with PD. As to conditions: cited from earlier work.
For series [3] the following is noted: human, in vivo; cited from earlier work.
The conditions of series [4]: cited from earlier work.
The conditions of series [5]: cited from earlier work. This is another data set of the same source.
In series [6] the test system is psychosis associated with PD. As to conditions: initial open-label studies; cited from earlier work.

Take `CC1CCN(CCCC(=O)c2ccc(F)cc2)CC1` [melperone]: the “Solubility in aqueous solutions” value in series [1] (higher pH values (above pH=7.5)) is listed as “poorly soluble”. For the same molecule, the “Solubility in aqueous solutions” value in series [1] (pH range from about 1.2 up to about pH 6.8) was “freely soluble”. In addition, in series [2] (mean daily dose of 37.5 mg), the “time over which efficacy was maintained” value is listed as 2 years. For the same molecule, in series [2] (proof-of-concept study), the “efficacy in the treatment of psychosis in patients with PD” value is “has shown efficacy” and the onset of efficacy entry is “rapid (within a week)”. Besides, the “incidence of extrapyramidal side effect (EPS) or tardive dyskinesia” value in series [3] is given as “low incidence”. Moreover, the “mean Tmax” value in series [4] (oral tablet administration) was 1.5 to 3.0 h. Besides, the absolute oral bioavailability in series [4] (oral, extensive first-pass metabolism) is 50-70%.

By solubility is commonly meant the concentration that dissolves in the medium under given conditions. By pKa is commonly meant the pH at which an ionisable group is half protonated. Consider `CC1CCN(CCCC(=O)c2ccc(F)cc2)CC1.Cl` [Melperone HCl, 1-(4-fluorophenyl)-4-(4-methyl-1-piperidinyl)-1-butanone hydrochloride], for which the solubility was 88.5 mg/mL in series [1] (ethanol, organic solvent or mixture); 800 mg/mL in series [1] (phosphate buffer, aqueous buffer, pH 4.5 (phosphate)); 800 mg/mL in series [1] (phosphate buffer, aqueous buffer, pH 6.8 (phosphate)); not below 100 mg/mL in series [1] (phosphate buffer, aqueous buffer, pH 7.0 (phosphate)); 51.3 mg/mL in series [1] (phosphate buffer, aqueous buffer, pH 7.1 (phosphate)); 25.6 mg/mL in series [1] (phosphate buffer, aqueous buffer, pH 7.5 (phosphate)). Moreover, the solubility is 800 mg/mL in series [1] (purified water, water) and 700 mg/mL in series [1] (simulated gastric fluid, pH 1.2 (0.1N HCl)). In addition, the pKa in series [5] was 9.1.

`OCCOCCN1CCN(C2=Nc3ccccc3Sc3ccccc32)CC1` [quetiapine]: in series [6], the “efficacy in psychosis associated with PD” value is recorded as “has shown efficacy” and the “patients with worsening of motor symptoms of PD” value was “up to 30%”.
